Laboratory results published in patent US7098219B2, “Inhibitors of cellular efflux pumps of microbes” (Wockhart Limited, priority 2000, dated 2006).

Experiments:
[1] = system: Pseudomonas aeruginosa 23587; test: Antibiotic diffusion assay, levofloxacin plate versus water control plate; format: cell-based; settings: zone of inhibition in levofloxacin (5 mcg/ml) plate minus water control plate; Mueller Hinton Agar, 35° C. 20 hours
Experimental: (§1) Testing method for Inhibition of the Efflux Pumps of Pseudomonas aeruzinosa 23587, E. coli 2051, Streptococcus pneumoniae 3514 and Streptococcus pyozenus 26-00
Antibiotic Diffusion Assay
The activity of efflux pump inhibitor was also assessed using an antibiotic diffusion assay. For this assay Pseudomonas aeruginosa 23587 is used. Pseudomonas aeruginosa 23587 is a clinical isolate containing multiple efflux pumps which can be mexAB, mexCD, mexEF but not limited to mex classification only. Pseudomonas aeruginosa are grown in tryptic soya broth for 20 hours at 35° C. Two antibiotic assay plates are prepared in Mueller Hinton Agar using above inoculum. The bacterial count in a plate is 1×10^6 cells/ml. In one of the plates, levofloxacin is incorporated at 5 mcg/ml, while in the control plate an equivalent amount of water is added. […]. The plates are incubated at 35° C. for 20 hours and the zone of inhibition was recorded in mm (table 2). The difference in the diameter of zone of inhibition was calculated by subtracting from the diameter of the zone of inhibition in the levofloxacin containing plate the diameter of the zone of inhibition in the water containing control plate. Example, if the diameter of the zone of inhibition in the levofloxacin plate is X mm and the diameter of the zone of inhibition in the control plate is Y mm, the difference Z=X−Y and is a measure of the activity of the efflux pump inhibitor.

E. coli 2051 = test: as above; format: cell-based, Escherichia coli; settings: zone of inhibition in levofloxacin (15 mcg/ml) plate minus water control plate; Mueller Hinton Agar, 35° C. 20 hours
Experimental: as §1
The activity of an efflux pump inhibitor of E. coli 2051 was also assessed using an antibiotic diffusion assay. For this assay E. coli 2051 is used. E. coli 2051 is a clinical isolate containing multiple efflux pumps. E. coli 2051 are grown in tryptic soya broth for 20 hours at 35° C. Two antibiotic assay plates are prepared in Mueller Hinton Agar using above inoculum. The bacterial count in a plate is 1×10^6 cells/ml. In one of the plates, levofloxacin is incorporated at 15 mcg/ml, while in the control plate an equivalent amount of water is added. […]. The plates are incubated at 35° C. for 20 hours and the zone of inhibition was recorded in mm (table 3) . The difference in the diameter of zone of inhibition was calculated by subtracting from the zone of inhibition in the levofloxacin containing plate the diameter of the zone of inhibition in the control plate.

[2] = system: Mef Efflux Pump of Streptococcus pneumoniae 3514 and Streptococcus pyogenes 26-00; test: Two plate diffusion assay for macrolide (Mef) efflux pump inhibitors, azithromycin plate versus control plate; format: cell-based; settings: zone of inhibition in antibiotic plate (method: azithromycin 0.5 mcg/ml; footnote: levofloxacin) minus water control plate; strain not given
[3] = system: Staphylococcus aureus 1199 B NorA+; format: cell-based; settings: combination with ciprofloxacin, broth microdilution checkerboard, 35° C. 20 hours; FIC index ≦0.5 synergistic, 0.5–2.0 additive, >2.0 antagonistic
How it was run: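 Broth microdilution checkerboard with ciprofloxacin against S. aureus 1199B NorA+, pump inhibitor titrated along one axis; inoculum 5×10^5 CFU/ml in Mueller Hinton broth, 35 °C for 20 hours. Growth read by visible turbidity, confirmed by plate reader; FIC index derived from inhibitor MIC in combination versus alone.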

Row | Molecule | Difference in Zone diameter Z1 (mm) [1] [mm] | Difference in Zone diameter Z1 (mm) (E. coli 2051) | Difference in Zone diameter Z1 (mm) [2] [mm] | FIC INDEX [3]
1 | 10-Fluoro-11-[(1∝,5∝,6∝)-6-amino-3-azabicyclo[3.1.01]hex-3yl]-3,4-dihydro-4(S)-methyl-8-oxo-2H,8H-pyrido[1,2,3-ef]-1,5-benzoxazipin-7-carboxylic acid. HCl [Example 37 (P. aeruginosa)] | 2 | 5 | – | –
2 | CC1CCc2c(N3CCC(OC(=O)[C@@H](N)CC(=O)O)CC3)c(F)cc3c(=O)c(C(=O)O)cn1c23.Cl (mixture of isomers) [Example 27 (P. aeruginosa), (RS)-(±)-9-Fluoro-6,7-dihydro-8-4′-(L-ot-aspartyloxy)piperidin-1-yl]-5-methyl-1-oxo-1H,5H-benzo[i,j]quinolizine-2-carboxylic acid hydrochloride] | 11 | – | 6 | –
3 | C[C@@H]1CN(c2c(F)cc3c(=O)c(C(=O)O)cn4c3c2CC[C@@H]4C)CC[C@H]1O (relative stereo) [Example 35 (P. aeruginosa), S-(−)-9-Fluoro-6,7-dihydro-8-(trans-4′-hydroxy-3′-methylpiperidin-1-yl]-5-methyl-1H,5H-benzo[i,j]quinolizine-2-carboxylic acid] | 8 | 8 | – | –
4 | Cc1c(F)c(Br)cc2c1c(=O)c(C(=O)O)cn2C1CC1 [Example 2 (P. aeruginosa), 7-Bromo-1-cyclopropyl-6-fluoro-5-methyl-1l 4-dihydro-4-oxo-quinoline-3-carboxylic acid] | 1 | 9 | – | –
5 | CCn1cc(C(=O)O)c(=O)c2cc(F)c(N3CC4C(N)C4C3)c(F)c21 (centres unmarked) [Example 4 (NorA), 1-Ethyl-6,8-difluoro-1,4-dihydro-7-{(1∝,5∝,6∝)-6-amino-3-azabicyclo[3.1.01]-hex-3-yl}-4-oxo-quinoline-3-carboxylic acid] | 7 | – | – | 0.192
6 | COc1c(N2CCC(N)C(C)(C)C2)c(F)cc2c(=O)c(C(=O)O)cn(C3CC3)c12 (centres unmarked) [Example 6 (P. aeruginosa), 1-Cyclopropyl-6-fluoro-8-methoxy-1,4-dihydro-7-(4′-amino-3′-3′-dimethylpiperidin-1-yl)-4-oxo-quinoline-3-carboxylic acid] | 12 | 11 | – | –
7 | COc1c(N2CCC(N(C)C)CC2)c(F)cc2c(=O)c(C(=O)O)cn(C3CC3)c12 [Example 7 (P. aeruginosa), 1-Cyclopropyl-6-fluoro-8-methoxy-1,4-dihydro-7-{4′-dimethylaminopiperidin-1-yl}-4-oxo-quinoline-3-carboxylic acid] | 5 | – | – | –
8 | COc1c(N2CCC(C)(O)CC2)c(F)cc2c(=O)c(C(=O)O)cn(C3CC3)c12 [Example 8 (P. aeruginosa), 1-Cyclopropyl-6-fluoro-8-methoxy-1,4-dihydro-7-(4′-hydroxy-4′-methylpiperidin-1-yl)-4-oxo-quinoline-3-carboxylic acid] | 5 | – | – | –
9 | NCC1CN(c2c(F)c(N)c3c(=O)c(C(=O)O)cn(C4CC4)c3c2F)CCC1O (centres unmarked) [Example 11 (P. aeruginosa), 5-Amino-1-(cyclopropyl)-6,8-difluoro-1,4-dihydro-7-(3′-aminomethyl-4′-hydroxy-piperidin-1-yl)-4-oxo-quinoline-3-carboxylic acid] | 3 | – | – | –
10 | CCN1CCN(c2cc3c(cc2F)c(=O)c(C(=O)O)cn3C2CC2)CC1C (centres unmarked) [Example 13 (P. aeruginosa), 1-Cyclopropyl-6-fluoro-1,4-dihydro-7-(4′-ethyl-3′-methylpiperazin-1-yl)-4-oxo-quinoline-3-carboxylic acid] | 4 | – | – | –
11 | CCN1C(C)CN(c2cc3c(cc2F)c(=O)c(C(=O)O)cn3C2CC2)CC1C (centres unmarked) [Example 16 (NorA), 1-Cyclopropyl-6-fluoro-1,4-dihydro-7-(3′,5′-dimethyl-4′-ethylpiperazin-1-yl)-4-oxo-quinoline-3-carboxylic acid] | 8 | – | – | 0.314
12 | Nc1c(F)c(N2CCC(N)C2)c(F)c2c1c(=O)c(C(=O)O)cn2-c1ccc(F)cc1F (centres unmarked) [Example 16 (P. aeruginosa), 5-Amino-1-(2′,4′-difluorophenyl)-6,8-difluoro-1,4-dihydro-7-(3-aminopyrrolidine-1-yl)-4-oxo-quinoline-3-carboxylic acid] | 3 | – | – | –
13 | CCOC(=O)C1(N)CCN(c2c(F)c(N)c3c(=O)c(C(=O)O)cn(C4CC4)c3c2F)C1 (centres unmarked) [Example 17 (P. aeruginosa)] | 8 | – | – | –
14 | CCC1CN(c2nc3c(cc2F)c(=O)c(C(=O)O)cn3C2CC2)CCC1N (centres unmarked) [Example 20 (P. aeruginosa), 1-Cyclopropyl-6-fluoro-1,4-dihydro-7-(4′-amino-3′-ethylpiperidin-1-yl)-4-oxo-naphthyridine-3-carboxylic acid] | 6 | – | – | –
15 | COc1c(N2CCC(O)C(C)(C)C2)c(F)cc2c(=O)c(C(=O)O)cn(C3CC3)c12 (centres unmarked) [Example 21 (NorA), 1-Cyclopropyl-6-fluoro-8-methoxy-1,4-dihydro-7-(4′-hydroxy-3′,3′-dimethylpiperidin-1-yl)-4-oxo-quinoline-3-carboxylic acid] | 8 | – | – | 0.264
16 | C[C@H]1CCc2c(N3CCC(O)CC3)c(F)cc3c(=O)c(C(=O)O)cn1c23 [Example 21 (P. aeruginosa), S-(−)-9-Fluoro-6,7-dihydro-8-(4′-hydroxypiperidin-1-yl)-5-methyl-1-oxo-1H,5H-benzo[i,j]quinolizine-2-carboxylic acid 0.2 hydrate] | 5 | 9 | – | –
17 | Cc1c(F)c(N2CCC(O)C(CN)C2)c(F)c2c1c(=O)c(C(=O)O)cn2C1CC1 (centres unmarked) [Example 25 (NorA), 1-Cyclopropyl-6,8-difluoro-5-methyl-1,4-dihydro-7-(4′-hydroxy-3′-aminomethylpiperidin-1-yl)-4-oxo-quinoline-3-carboxylic acid] | 5 | – | – | 0.192
18 | C[C@H](N)C(=O)OC1CCN(c2c(F)cc3c(=O)c(C(=O)O)cn4c3c2CC[C@@H]4C)CC1.Cl [Example 30 (P. aeruginosa), (S)-(−)-9-Fluoro-6,7-dihydro-8-{4′-(L-alanyloxy)piperidin-1-yl}-5-methyl-1-oxo-1H,5H-benzo[i,j]quinolizine-2-carboxylic acid hydrochloride] | 9 | – | – | –
19 | CCC1CN(c2c(F)cc3c(=O)c(C(=O)O)cn4c3c2OCC4C)CCC1O (centres unmarked) [Example 36 (P. aeruginosa), 7H-Pyrido[1,2,3-de]-1,4-benzoxazine-9-fluoro-2,3-dihydro-3-methyl-10-(4′-hydroxy-3′-ethylpiperidin-1′-yl)-7-oxo-6-carboxylic acid] | 5 | – | 5 | –
20 | O=C(O)c1cn(C2CC2)c2nc(NC3CCNC3)c(F)cc2c1=O (centres unmarked) [Example 49 (NorA), 1-Cyclopropyl-6-fluoro-1,4-dihydro-7-(pyrrolidin-3-yl-amino)-4-oxo-1,8naphthyridine-3-carboxylic acid] | 6 | – | – | 0.188
21 | O=C(O)c1cn(-c2ccc(F)cc2F)c2nc(NC3CCNCC3)c(F)cc2c1=O [Example 50 (NorA), 1-(2′,4′-Difluorophenyl)-6-fluoro-1,4-dihydro-7-(piperidin-4-yl-amino)-4-oxo-1,8-naphthyridine-3-carboxylic acid] | 6 | – | – | 0.314
22 | (S)-(−)-9-Fluoro-6,7-dihydro-8-(4′-hydroxypiperidin-1-yl)-5-methyl-1-oxo-1H,5H-benzo[i,j]quinolizine-2-carboxylic acid. (L) histidine salt [Example 25 (P. aeruginosa)] | 5 | – | – | –
